# Where two headings read alike, the source gives them in different places.
# B1: vaso: N-terminal domain of calreticulin (amino acids 1-180, SEQ ID NO:3); given as fusion protein with maltose binding protein, MBP-vaso (protein)
# chain: EPAVYFKEQFLDGDGWTSRWIESKHKSDFGKFVLSSGKFYGDEEKDKGLQTSQDARFYALSASFEPFSNKGQTLVVQFTVKHEQNIDCGGGYVKLFPNSLDQTDMHGDSEYNIMFGPDICGPGTKKVHVIFNYKGKNVLINKDIRCKDDEFTHLYTLIVRPDNTYEVKIDNSQVESGSLE
# modifications: Vasostatin
# Assays:
# [1] = tested on: peripheral blood white cells
# Experimental: Mice (C57BL/B6, females, 7.5 weeks old) were treated for 1 week with daily inoculations of vaso (300 μg/mouse) or buffer alone. On day 8, the mice received cytoxan (1 or 2 mg/mouse) and continued daily inoculation with buffer or vaso. Peripheral blood white cell counts were measured on day 5 after administration of cytoxan.
# C57BL6J mice (7 weeks of age) were first treated for 7 days daily with either buffer (100 μl s.c.) or vaso (300 μg/mouse in 100 μl of buffer s.c.). On day 8, groups of mice (n=6) pretreated with either buffer or vaso were injected with cyclophosphamide (1.0 or 2.0 mg/mouse) and continued on daily inoculations of buffer (100 μl s.c.) or vaso (300 μg/mouse in 100 μl of buffer s.c.). Additional control mice were treated with only buffer or vaso for 5 additional days. On days 3 and 5 after cyclophosphamide injection, ½ of the mice were killed for evaluation of the bone marrow and peripheral blood.
# bone marrow cells = tested on: bone marrow cells
# Experimental: Groups of C57BL/6 mice (8 weeks of age) were treated as described in FIG. 14. FIG. 4A is a bar graph of the bone marrow cell count from mice treated for 16 days with either buffer alone (PBS, 100 μl/mouse/day s.c), Vaso (300 μg/mouse/day s.c) alone, Cytoxan (500 μg/mouse/day i.p.) alone, or vaso (300 μg/mouse/day s.c) plus Cytoxan (500 μg/mouse/day i.p.). Bone marrow was harvested on days 9 and 17 and the number of nucleated cells were counted. FIG. 4B is a bar graph of the bone marrow cell count from mice treated with for 11 days with either buffer alone (PBS, 100 μl/mouse/day s.c), Vaso (300 μg/mouse/day s.c) alone, Cytoxan (250 μg/mouse/day i.p.)×11 days plus Cytoxan 2 mg/mouse i.p. on day 11, or Cytoxan ([…] s.c, days 1-16). Bone marrow cell counts were obtained on day 17. FIG. 4C is a bar graph of peripheral blood white cells counts (WBC) on day 17 from mice from the same treatment groups described in B. […]
# (§1) In addition, rather than treating the mice with vaso prior to toxin exposure as described above, mice were simultaneously inoculated with cyclophosphamide and vaso. Thus, groups of mice (n=6) received either buffer alone (100 μl s.c) daily for 16 days, vaso (300 μg/mouse s.c) alone daily for 16 days, cyclophosphamide (500 μg/mouse i.p.) either alone or together with vaso (300 μg/mouse s.c) for 16 days. Other groups of mice (n=6) were inoculated daily for 11 days with cyclophosphamide (250 μg/mouse i.p.) either alone or together with vaso (300 μg/mouse s.c).
# [2] = tested on: peripheral blood white cells; remark: listed apart in the source
# Experimental: Groups of C57BL/6 mice (8 weeks of age) were treated as described in FIG. 14. FIG. 4A is a bar graph of the bone marrow cell count from mice treated for 16 days with either buffer alone (PBS, 100 μl/mouse/day s.c), Vaso (300 μg/mouse/day s.c) alone, Cytoxan (500 μg/mouse/day i.p.) alone, or vaso (300 μg/mouse/day s.c) plus Cytoxan (500 μg/mouse/day i.p.). Bone marrow was harvested on days 9 and 17 and the number of nucleated cells were counted. FIG. 4B is a bar graph of the bone marrow cell count from mice treated with for 11 days with either buffer alone (PBS, 100 μl/mouse/day s.c), Vaso (300 μg/mouse/day s.c) alone, Cytoxan (250 μg/mouse/day i.p.)×11 days plus Cytoxan 2 mg/mouse i.p. on day 11, or Cytoxan (250 μg/mouse/day i.p.)×11 days plus Cytoxan 2 mg/mouse i.p. on day 11 plus Vaso (300 μg/mouse/day s.c, days 1-16). Bone marrow cell counts were obtained on day 17. FIG. 4C is a bar graph of peripheral blood white cells counts (WBC) on day 17 from mice from the same treatment groups described in B.
# FIG. 14 is a schematic diagram of different treatment groups used in the studies described herein. • Group 1: Buffer alone (100 μl/mouse/day s.c)×16 days • Group 2: Vaso alone (300 μg/mouse/day s.c)×16 days • Group 3: Cyclophosphamide (500 μg/mouse/day i.p.)×16 days Group 4: Cyclophosphamide (500 μg/mouse/day i.p.)×16 days plus vaso (300 μg/mouse/day s.c)×16 days Group 5: Cyclophosphamide (250 μg/mouse/day i.p.)×11 days plus Cyclophosphamide 2 mg/mouse i.p. on day 11 Group 6: Cyclophosphamide (250 μg/mouse/day i.p.)×11 days plus Cyclophosphamide 2 mg/mouse i.p. on day 11 plus vaso (300 μg/mouse/day s.c) days 1-16.
# as §1
# [3] = tested on: peripheral blood white cells; remark: listed apart in the source
# Experimental: Groups of mice (C57BL/B6, 6 weeks old, 10 mice/group) were treated for 4 days with either buffer (PBS, 100 μl/mouse/day), native vaso (200 μg/mouse/day s.c) or denatured vaso ([…]). On day 5, some of the animals were treated with cytoxan and the original treatment with buffer, native or denatured vaso was continued. On day 9 (5 days after one half of the mice had received cytoxan), peripheral blood white cell counts were measured.
# To examine whether the effects of vaso on the hematopoietic system are attributable to the native protein, the effects of native vaso were compared with the effects of vaso that had been denatured by boiling. Groups of mice (n=10) were treated for 4 days with either buffer (100 μl/mouse s.c); native vaso (200 μg/mouse/day s.c); or denatured vaso (300 μg/mouse/day s.c). On day 5, some of the mice were injected with cyclophosphamide (2 mg/mouse/i.p.) and treatment continued with either buffer, native vaso or denatured vaso. The experiment was terminated on day […], at which time peripheral blood counts were measured.
# [4] = same dose and regimen of cyclophosphamide plus vaso
Molecule,"peripheral blood white cell counts on day 5 after cyclophosphamide ([1]; cyclophosphamide 2.0 or 1.0 mg/mouse alone, vs buffer or vaso alone controls)","bone marrow cell counts on day 17 (bone marrow cells; cyclophosphamide 250 μg/mouse daily for 11 days then single 2 mg/mouse injection on day 12, alone)","bone marrow cell counts on day 9 (bone marrow cells; cytoxan 500 μg/mouse/day i.p. alone, vs PBS controls)","bone marrow cell counts on day 17 (bone marrow cells; cytoxan 500 μg/mouse/day i.p. for 16 days alone, vs PBS controls)","peripheral white blood cell counts on day 17 ([2]; cyclophosphamide 250 μg/mouse daily for 11 days then 2 mg/mouse on day 12, alone, vs untreated controls)","average percent neutrophils on day 17 ([2]; cyclophosphamide 250 μg/mouse daily for 11 days then 2 mg/mouse on day 12, alone, controls 10-17%) [%]","average percent lymphocytes on day 17 ([2]; cyclophosphamide 250 μg/mouse daily for 11 days then 2 mg/mouse on day 12, alone, controls 72-83%) [%]","peripheral blood white cell counts ([3]; cyclophosphamide 2 mg/mouse i.p. with buffer, vs buffer-only controls)","reduction in peripheral blood white cell counts caused by cyclophosphamide, day 5 ([1]; cyclophosphamide 2.0 or 1.0 mg/mouse with vaso 300 μg/mouse/day)",bone marrow cell counts on day 17 (bone marrow cells; Vaso 300 μg/mouse/day s.c. for 16 days with cyclophosphamide 250 μg/mouse daily for 11 days then 2 mg/mouse on day 12),bone marrow cell count on days 9 and 17 (bone marrow cells; cyclophosphamide 500 μg/mouse/day i.p. plus vasostatin 300 μg/mouse/day s.c.),"average percent lymphocytes on day 17 [2, 4] [%]","average percent neutrophils on day 17 [2, 4] [%]",white blood cells in the circulation on day 17 ([2]; vaso in conjunction with cyclophosphamide 250 μg/mouse daily for 11 days then 2 mg/mouse),peripheral blood white cell counts after cyclophosphamide (alleviation of toxicity) ([3]; cyclophosphamide 2 mg/mouse i.p. plus native vaso 200 μg/mouse/day s.c. or denatured vaso 300 μg/mouse/day s.c.)
"O=P1(N(CCCl)CCCl)NCCCO1 (stereo not drawn) [cyclophosphamide, reference compound]",significantly reduced,considerable reduction of bone marrow cell counts,did not reduce bone marrow cell counts on day 9,reduced them on day 17,reduction in white blood cell counts,13.4,62,markedly reduced,,,,,,,
B1,,,,,,,,,alleviated,prevented the occurrence of a reduction in bone marrow cell counts,higher than in the control mice and in the mice treated with cytoxan,25,63,significantly greater number of white blood cells,minimally different from those of the control mice

# Reference: patent US7812117B2, “Vasostatin as marrow protectant” (The United States of America as represented by the …, priority 1998, dated 2010)
